Measured values from PMC3552814, “Elimination Rates of Dioxin Congeners in Former Chlorophenol Workers from Midland, Michigan” (Environmental Health Perspectives, 2012).

Assay: not given
Design: method as in van den Berg et al. 2006
Conditions: WHO toxic equivalency factor; ref van den Berg et al. 2006; cited from earlier work

SMILES	TEF
Clc1cccc2c1Oc1c(Cl)c(Cl)c(Cl)c(Cl)c1O2 [PeCDD, pentachlorodibenzo-p-dioxin]	1
Clc1cc2c(c(Cl)c1Cl)Oc1c(Cl)c(Cl)c(Cl)c(Cl)c1O2 [HpCDD, 1,2,3,4,7,8,9-heptachlorodibenzo-p-dioxin]	0.01
Clc1cc2c(c(Cl)c1Cl)Oc1c(cc(Cl)c(Cl)c1Cl)O2 [Congener 19HxCDD, 1,2,3,7,8,9-hexachlorodibenzo-p-dioxin]	0.1
Clc1cc2c(cc1Cl)Oc1c(Cl)c(Cl)c(Cl)c(Cl)c1O2 [Congener 14HxCDD, 1,2,3,4,7,8-hexachlorodibenzo-p-dioxin]	0.1

Assay: not given
Design: method as in Patterson et al. 2009
Conditions: 50th percentile, persons ≥ 60 years of age; LODs variable; ref Patterson et al. 2009; cited from earlier work

SMILES	NHANES (2003–2004) P50 [pg/g lipid]
Clc1cccc2c1Oc1c(Cl)c(Cl)c(Cl)c(Cl)c1O2 [PeCDD, pentachlorodibenzo-p-dioxin]	8.0

Same assay, conditions: 95th percentile, persons ≥ 60 years of age; ref Patterson et al. 2009; cited from earlier work

SMILES	NHANES (2003–2004) P95 [pg/g lipid]
Clc1cccc2c1Oc1c(Cl)c(Cl)c(Cl)c(Cl)c1O2 [PeCDD, pentachlorodibenzo-p-dioxin]	17.7
Clc1cc2c(c(Cl)c1Cl)Oc1c(cc(Cl)c(Cl)c1Cl)O2 [Congener 19HxCDD, 1,2,3,7,8,9-hexachlorodibenzo-p-dioxin]	16.2
Clc1cc2c(cc1Cl)Oc1c(Cl)c(Cl)c(Cl)c(Cl)c1O2 [Congener 14HxCDD, 1,2,3,4,7,8-hexachlorodibenzo-p-dioxin]	15.1

Assay: not given
Conditions: from change in concentration; n = 6; ages 41–73 years; ref Rohde et al. 1999; cited from earlier work

SMILES	Half-life of elimination, Rohde et al. 1999 (mean) [years]
Clc1cccc2c1Oc1c(Cl)c(Cl)c(Cl)c(Cl)c1O2 [PeCDD, pentachlorodibenzo-p-dioxin]	13.9
Clc1cc2c(c(Cl)c1Cl)Oc1c(Cl)c(Cl)c(Cl)c(Cl)c1O2 [HpCDD, 1,2,3,4,7,8,9-heptachlorodibenzo-p-dioxin]	4.3
Clc1cc2c(c(Cl)c1Cl)Oc1c(cc(Cl)c(Cl)c1Cl)O2 [Congener 19HxCDD, 1,2,3,7,8,9-hexachlorodibenzo-p-dioxin]	7.7
Clc1cc2c(cc1Cl)Oc1c(Cl)c(Cl)c(Cl)c(Cl)c1O2 [Congener 14HxCDD, 1,2,3,4,7,8-hexachlorodibenzo-p-dioxin]	13.9

Same assay, conditions: from change in concentration; n = 26 to 48; mean age 48.7 years at first sampling; ref Flesch-Janys et al. 1996; cited from earlier work

SMILES	Half-life of elimination, Flesch-Janys et al. 1996 (median) [years]
Clc1cccc2c1Oc1c(Cl)c(Cl)c(Cl)c(Cl)c1O2 [PeCDD, pentachlorodibenzo-p-dioxin]	15.7
Clc1cc2c(c(Cl)c1Cl)Oc1c(Cl)c(Cl)c(Cl)c(Cl)c1O2 [HpCDD, 1,2,3,4,7,8,9-heptachlorodibenzo-p-dioxin]	3.7
Clc1cc2c(c(Cl)c1Cl)Oc1c(cc(Cl)c(Cl)c1Cl)O2 [Congener 19HxCDD, 1,2,3,7,8,9-hexachlorodibenzo-p-dioxin]	4.9
Clc1cc2c(cc1Cl)Oc1c(Cl)c(Cl)c(Cl)c(Cl)c1O2 [Congener 14HxCDD, 1,2,3,4,7,8-hexachlorodibenzo-p-dioxin]	8.4

Same assay, conditions: ref Flesch-Janys et al. (1996); cited from earlier work

SMILES	Median concentration at first sampling time point [pg/g lipid]
Clc1cc2c(c(Cl)c1Cl)Oc1c(Cl)c(Cl)c(Cl)c(Cl)c1O2 [HpCDD, 1,2,3,4,7,8,9-heptachlorodibenzo-p-dioxin]	641

Assay: Serum lipid-adjusted dioxin congener concentrations in former chlorophenol workers, repeated blood sampling 2004–2005 and 2010
Type: in vivo, human
Conditions: change in concentration from 2004–2005 to 2010
Description: Participant selection. The selection strategy called for drawing a stratified random sample of workers included in the previous 2004–2005 blood draw. […] We used the 95th percentile of age-specific U.S. population concentrations for each congener identified in the National Health and Nutrition Examination Survey (NHANES; [Centers for Disease Control and Prevention 2009]) to define the upper ends of the background ranges. Nine strata were formed based jointly on previous serum levels of TCDD (high, > 50 ppt; moderate, 10–50 ppt; and background, < 10 ppt), representing workers in predominantly TCP processes, and OCDD (high, > 5,000 ppt; moderate, 1,000–5,000 ppt; and background, < 1,000 ppt), representing those with experience in PCP processes. We attempted to enroll participants representing each of these strata. Invitations to participate were sent to our target sample of 72 workers who were selected based on these congener concentration criteria.
Questionnaire and data collection methods. We conducted the serum analyses in 2010 using the same protocol, procedures, and laboratory as in the 2004–2005 blood draw ([Collins et al. 2006]). The serum samples were tested for 7 polychlorinated dibenzo-p-dioxins (PCDDs), 10 polychlorinated dibenzofurans (PCDFs), and 15 polychlorinated biphenyls (PCBs). […] The study was conducted pursuant to approval and oversight by the Dow Human Subjects Review Board in Midland, Michigan. All study participants gave informed consent.
On the day of examination in the fall of 2010, participants donated blood and completed the same questionnaire originally administered during the 2004–2005 sampling effort ([Collins et al. 2006]). The questionnaire addressed dietary and smoking habits, work history, and recent changes in weight. Height, weight, and blood pressure were also measured. Diagnosis of chloracne during occupational exposure was extracted from workplace medical records; the criteria for chloracne diagnosis were defined previously by [Bond et al. (1990)].

SMILES	Mean percent change
Clc1cccc2c1Oc1c(Cl)c(Cl)c(Cl)c(Cl)c1O2 [PeCDD, pentachlorodibenzo-p-dioxin]	–28%
Clc1cc2c(c(Cl)c1Cl)Oc1c(Cl)c(Cl)c(Cl)c(Cl)c1O2 [HpCDD, 1,2,3,4,7,8,9-heptachlorodibenzo-p-dioxin]	–46%
Clc1cc2c(c(Cl)c1Cl)Oc1c(cc(Cl)c(Cl)c1Cl)O2 [Congener 19HxCDD, 1,2,3,7,8,9-hexachlorodibenzo-p-dioxin]	–42%
Clc1cc2c(cc1Cl)Oc1c(Cl)c(Cl)c(Cl)c(Cl)c1O2 [Congener 14HxCDD, 1,2,3,4,7,8-hexachlorodibenzo-p-dioxin]	–34%

Same assay, conditions: present study

SMILES	2004–2005 median concentration [pg/g lipid]
Clc1cc2c(c(Cl)c1Cl)Oc1c(Cl)c(Cl)c(Cl)c(Cl)c1O2 [HpCDD, 1,2,3,4,7,8,9-heptachlorodibenzo-p-dioxin]	88.6

Same assay, conditions: serum, 56 Midland study participants, 2004–2005 sampling

SMILES	Concentration 2004–2005, Mean ± SD [pg/g lipid]
Clc1cccc2c1Oc1c(Cl)c(Cl)c(Cl)c(Cl)c1O2 [PeCDD, pentachlorodibenzo-p-dioxin]	19.7 ± 11.3
Clc1cc2c(c(Cl)c1Cl)Oc1c(Cl)c(Cl)c(Cl)c(Cl)c1O2 [HpCDD, 1,2,3,4,7,8,9-heptachlorodibenzo-p-dioxin]	159.9 ± 161.8
Clc1cc2c(c(Cl)c1Cl)Oc1c(cc(Cl)c(Cl)c1Cl)O2 [Congener 19HxCDD, 1,2,3,7,8,9-hexachlorodibenzo-p-dioxin]	19.4 ± 14.5
Clc1cc2c(cc1Cl)Oc1c(Cl)c(Cl)c(Cl)c(Cl)c1O2 [Congener 14HxCDD, 1,2,3,4,7,8-hexachlorodibenzo-p-dioxin]	16.0 ± 11.9

Same assay, conditions: serum, 56 Midland study participants, 2010 sampling

SMILES	Concentration 2010, Mean ± SD [pg/g lipid]
Clc1cccc2c1Oc1c(Cl)c(Cl)c(Cl)c(Cl)c1O2 [PeCDD, pentachlorodibenzo-p-dioxin]	14.2 ± 8.6
Clc1cc2c(c(Cl)c1Cl)Oc1c(Cl)c(Cl)c(Cl)c(Cl)c1O2 [HpCDD, 1,2,3,4,7,8,9-heptachlorodibenzo-p-dioxin]	87.1 ± 83.3
Clc1cc2c(c(Cl)c1Cl)Oc1c(cc(Cl)c(Cl)c1Cl)O2 [Congener 19HxCDD, 1,2,3,7,8,9-hexachlorodibenzo-p-dioxin]	11.3 ± 9.8
Clc1cc2c(cc1Cl)Oc1c(Cl)c(Cl)c(Cl)c(Cl)c1O2 [Congener 14HxCDD, 1,2,3,4,7,8-hexachlorodibenzo-p-dioxin]	10.5 ± 7.9

Assay: Elimination half-lives from serial serum samples, first-order one-compartment model
Type: in vivo
Conditions: human, serum (lipid-adjusted), other: occupational exposure, 56 participants; based on change in estimated mass of the congener in the body; read-out: Elimination half-lives [median (P25–P75)], Apparent, mass based (converted)
Description: Elimination rates. Changes in measured concentrations of persistent compounds such as PCDDs and PCDFs reflect not only intrinsic elimination rates but also any ongoing intakes of the compounds and changes in the volume of distribution, in this case, the volume of body lipids ([Bartell 2012]; [Ritter et al. 2009], [2011]). If current body concentrations are high relative to steady-state concentrations associated with current background intake rates, apparent elimination rates will approximate intrinsic elimination rates ([Bartell 2012]; [van der Molen et al. 1998]). If, on the other hand, background intakes are high compared with current body concentrations, the estimated apparent elimination rate will be lower than the intrinsic rates. Robust data regarding ongoing congener intake rates were not available, so the elimination rates were first calculated based on net rate of change of the congeners, which reflects both intrinsic elimination rates and unmeasured intake rates, termed “apparent” elimination rates.
We calculated apparent elimination rates in two ways: based on changes in concentration, or based on changes in estimated body amounts. For the former approach, concentrations of congener i in 2005 and 2010 (Ci,2005 and Ci,2010, respectively) and time between sampling dates (Δt), were used to estimate the elimination rate (ki):
Concentrations of lipophilic compounds may change in response to changes in the volume of distribution (increase or decrease in amount of body fat), even in the absence of any elimination or additional exposure ([Charlier et al. 2002]; [Chevrier et al. 2000]; [Hue et al. 2006]; [Imbeault et al. 2001]; [Pelletier et al. 2002]; [Walford et al. 1999]). Thus, we also estimated the rate of change in estimated whole body mass of each congener. For the approach based on changes in estimated mass of dioxins in the body, the congener concentrations in 2005 and 2010 were replaced by the estimated amounts, A, of congener i in the body:
where PBF is percent body fat estimated using an age-, sex-, and body mass index (BMI)-specific formula, which has been validated in adults over a range of ages including those of the participants in this study ([Deurenberg et al. 1991]), BW is body weight in kilograms, and Ci is the serum lipid–adjusted concentration of congener i. This approach assumes that the compound is distributed solely in body lipid. The resulting amount, Ai, calculated for each sampling time and congener was used in Equation 1 in place of concentration for calculating the apparent whole-body mass-based elimination rate.
Elimination half-lives (t1/2) corresponding to the estimated elimination rates, (k) were calculated for some comparisons with previous literature:
Inclusion of plausible background exposures. […] Changes in concentration or estimated mass of compound in the body reflect the net effect of both elimination and any ongoing exposures between sampling time points. Under a first-order model, the amount of compound in the body in 2010 (A2010) is a function of both the intrinsic elimination rate, kint, and the ongoing exposure rate between sampling time points:
where D is the yearly dose rate in nanograms per year, and A2005 is the starting amount in 2005. As described by [Ritter et al. (2011)], intrinsic elimination rates can be estimated if ongoing exposure levels are known or can be estimated.

SMILES	half-life [days]
Clc1cccc2c1Oc1c(Cl)c(Cl)c(Cl)c(Cl)c1O2 [PeCDD, pentachlorodibenzo-p-dioxin]	4240
Clc1cc2c(c(Cl)c1Cl)Oc1c(Cl)c(Cl)c(Cl)c(Cl)c1O2 [HpCDD, 1,2,3,4,7,8,9-heptachlorodibenzo-p-dioxin]	2780
Clc1cc2c(c(Cl)c1Cl)Oc1c(cc(Cl)c(Cl)c1Cl)O2 [Congener 19HxCDD, 1,2,3,7,8,9-hexachlorodibenzo-p-dioxin]	2480
Clc1cc2c(cc1Cl)Oc1c(Cl)c(Cl)c(Cl)c(Cl)c1O2 [Congener 14HxCDD, 1,2,3,4,7,8-hexachlorodibenzo-p-dioxin]	3000

Same assay, conditions: human, serum (lipid-adjusted), other: occupational exposure, 56 participants; based on change in serum lipid concentration; read-out: Elimination half-lives [median (P25–P75)], Apparent, concentration based (converted)

SMILES	half-life [days]
Clc1cccc2c1Oc1c(Cl)c(Cl)c(Cl)c(Cl)c1O2 [PeCDD, pentachlorodibenzo-p-dioxin]	3910
Clc1cc2c(c(Cl)c1Cl)Oc1c(Cl)c(Cl)c(Cl)c(Cl)c1O2 [HpCDD, 1,2,3,4,7,8,9-heptachlorodibenzo-p-dioxin]	2560
Clc1cc2c(c(Cl)c1Cl)Oc1c(cc(Cl)c(Cl)c1Cl)O2 [Congener 19HxCDD, 1,2,3,7,8,9-hexachlorodibenzo-p-dioxin]	2260
Clc1cc2c(cc1Cl)Oc1c(Cl)c(Cl)c(Cl)c(Cl)c1O2 [Congener 14HxCDD, 1,2,3,4,7,8-hexachlorodibenzo-p-dioxin]	2960

Same assay, conditions: human, serum (lipid-adjusted), other: occupational exposure, 56 participants; change in body mass after accounting for plausible background intake (Table 3); read-out: Elimination half-lives [median (P25–P75)], Estimated intrinsic (converted)

SMILES	half-life [days]
Clc1cccc2c1Oc1c(Cl)c(Cl)c(Cl)c(Cl)c1O2 [PeCDD, pentachlorodibenzo-p-dioxin]	3910
Clc1cc2c(c(Cl)c1Cl)Oc1c(Cl)c(Cl)c(Cl)c(Cl)c1O2 [HpCDD, 1,2,3,4,7,8,9-heptachlorodibenzo-p-dioxin]	2450
Clc1cc2c(c(Cl)c1Cl)Oc1c(cc(Cl)c(Cl)c1Cl)O2 [Congener 19HxCDD, 1,2,3,7,8,9-hexachlorodibenzo-p-dioxin]	2300
Clc1cc2c(cc1Cl)Oc1c(Cl)c(Cl)c(Cl)c(Cl)c1O2 [Congener 14HxCDD, 1,2,3,4,7,8-hexachlorodibenzo-p-dioxin]	2560
